Assay results published in ChEMBL document CHEMBL1147623, “Interference of the galactose-dependent binding of lectins by novel pentapeptide ligands” (Bioorg Med Chem Lett, 2004).

How the values were obtained:
[1] = Inhibition of CG-14 binding was determined in solid phase assay; design: species or system Gallus gallus
[2] = Inhibition of galectin-1 binding was determined in solid phase assay

Row | IC50 [1] [mM] | IC50 [2] [mM] | SMILES
1 | 6.9 | 8 | CC(C)C[C@H](NC(=O)[C@H](Cc1ccc(O)cc1)NC(=O)[C@@H](CC(=O)O)NC(=O)COCC(=O)NCCCOCCOCCOCCCN)C(=O)N[C@@H](Cc1ccc(O)cc1)C(=O)N[C@@H](Cc1ccccc1)C(N)=O
2 | 7.5 | 5.2 | CC(O)[C@@H](NC(=O)COCC(=O)NCCCOCCOCCOCCCN)C(=O)N[C@@H](Cc1ccc(O)cc1)C(=O)N[C@H](CC(=O)O)C(=O)N[C@@H](Cc1ccc(O)cc1)C(=O)N[C@@H](Cc1ccccc1)C(N)=O (some centres undefined)
